# Earlier results in US8607989B2, “Filter composites for drug detoxification” (Vascular Vision Pharmaceutical Co., priority 2009, dated 2013).
# Tested on: breast, colon, and gastric cancer; renal cell carcinoma; and sarcoma
structure (smiles),measurement,value
O=C1[O][Pt]2([NH][C@@H]3CCCC[C@H]3[NH]2)[O]C1=O [Oxaliplatin],activity in in vivo studies,active
